Results published in ChEMBL document CHEMBL4828724 (Eur J Med Chem, 2021).

Legend:
[1] = target: T1, Synaptic vesicular amine transporter (Rattus norvegicus, UniProt Q01827); assay: Inhibition of [3H]DA uptake at VMAT2 in rat striatal synaptosome incubated for 10 mins followed by [3H]DA addition and measured after 20 mins by TopCount scintillation counting method; type: subcellular, Striatum
[2] = Metabolic stability in monkey liver microsomes assessed as intrinsic clearance at 1 uM in the presence of NADPH measured for 60 mins by LC-MS/MS analysis; type: ADME, Macaca mulatta, Microsome; settings: rhesus monkey, read-out: CLH
[3] = target: T1, Synaptic vesicular amine transporter; assay: Inhibition of [3H]DTBZ binding to VMAT2 in rat brain incubated for 30 mins by liquid scintillation spectrometry analysis; type: tissue-based
[4] = Metabolic stability in human liver microsomes assessed as intrinsic clearance at 1 uM in the presence of NADPH measured for 60 mins by LC-MS/MS analysis; type: ADME, Microsome; settings: read-out: CLH
[5] = Metabolic stability in monkey liver microsomes assessed as half life at 1 uM in the presence of NADPH measured for 60 mins by LC-MS/MS analysis; type: ADME, Macaca mulatta, Microsome; settings: rhesus monkey
[6] = target: Synaptic vesicular amine transporter (Rattus norvegicus) (UniProt Q01827); assay: Inhibition of [3H]DA uptake at VMAT2 in rat striatal synaptosome at 1 uM incubated for 10 mins followed by [3H]DA addition and measured after 20 mins by TopCount scintillation counting method relative to control; type: subcellular; settings: Striatum, time 30.0 min
Sequence of Synaptic vesicular amine transporter (Rattus norvegicus) (Q01827 whole entry): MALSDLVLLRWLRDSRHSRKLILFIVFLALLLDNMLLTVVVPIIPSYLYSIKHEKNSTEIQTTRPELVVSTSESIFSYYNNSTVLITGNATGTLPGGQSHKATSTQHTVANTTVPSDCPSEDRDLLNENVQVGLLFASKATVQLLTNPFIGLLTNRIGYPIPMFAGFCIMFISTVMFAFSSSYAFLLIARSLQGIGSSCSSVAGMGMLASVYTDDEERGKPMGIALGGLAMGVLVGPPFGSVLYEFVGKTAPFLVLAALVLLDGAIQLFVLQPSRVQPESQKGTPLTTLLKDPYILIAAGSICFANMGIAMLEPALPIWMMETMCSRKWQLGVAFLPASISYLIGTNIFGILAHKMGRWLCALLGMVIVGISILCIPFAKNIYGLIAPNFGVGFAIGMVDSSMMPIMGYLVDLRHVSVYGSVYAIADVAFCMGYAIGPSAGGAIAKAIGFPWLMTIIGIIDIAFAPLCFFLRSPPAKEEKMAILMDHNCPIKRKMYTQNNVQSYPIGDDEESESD

[7] = Metabolic stability in mouse liver microsomes assessed as half life at 1 uM in the presence of NADPH measured for 60 mins by LC-MS/MS analysis; type: ADME, Microsome; settings: for half-life at 1 µM: liver microsomes
[8] = target: Synaptic vesicular amine transporter (Rattus norvegicus) (UniProt Q01827); assay: Inhibition of [3H]DA uptake at VMAT2 in rat striatal synaptosome at 0.1 uM incubated for 10 mins followed by [3H]DA addition and measured after 20 mins by TopCount scintillation counting method relative to control; type: subcellular; settings: Striatum, time 30.0 min
[9] = Metabolic stability in monkey liver microsomes assessed as parent compound remaining at 1 uM in the presence of NADPH measured after 60 mins by LC-MS/MS analysis; type: ADME, Macaca mulatta, Microsome; settings: rhesus monkey; for remaining at 1 h, 1 µM: liver microsomes, read-out: Stability
[10] = Metabolic stability in mouse liver microsomes assessed as parent compound remaining at 1 uM in the presence of NADPH measured after 60 mins by LC-MS/MS analysis; type: ADME, Microsome; settings: for remaining at 1 h, 1 µM: liver microsomes, read-out: Stability
[11] = Metabolic stability in mouse liver microsomes assessed as intrinsic clearance at 1 uM in the presence of NADPH measured for 60 mins by LC-MS/MS analysis; type: ADME, Microsome; settings: read-out: CLH
[12] = Metabolic stability in human liver microsomes assessed as half life at 1 uM in the presence of NADPH measured for 60 mins by LC-MS/MS analysis; type: ADME, Microsome
[13] = Metabolic stability in human liver microsomes assessed as parent compound remaining at 1 uM in the presence of NADPH measured after 60 mins by LC-MS/MS analysis; type: ADME, Microsome; settings: read-out: Stability
[14] = tested on: Rattus norvegicus; assay: Reduction in spontaneous locomotor activity in Sprague-Dawley rat at 3 umol/kg, po measured for 3 hrs; type: functional
[15] = target: Cytochrome P450 2D6 (Homo sapiens, UniProt P10635); assay: Inhibition of CYP2D6 (unknown origin); type: ADME
Sequence of Cytochrome P450 2D6 (P10635 whole entry): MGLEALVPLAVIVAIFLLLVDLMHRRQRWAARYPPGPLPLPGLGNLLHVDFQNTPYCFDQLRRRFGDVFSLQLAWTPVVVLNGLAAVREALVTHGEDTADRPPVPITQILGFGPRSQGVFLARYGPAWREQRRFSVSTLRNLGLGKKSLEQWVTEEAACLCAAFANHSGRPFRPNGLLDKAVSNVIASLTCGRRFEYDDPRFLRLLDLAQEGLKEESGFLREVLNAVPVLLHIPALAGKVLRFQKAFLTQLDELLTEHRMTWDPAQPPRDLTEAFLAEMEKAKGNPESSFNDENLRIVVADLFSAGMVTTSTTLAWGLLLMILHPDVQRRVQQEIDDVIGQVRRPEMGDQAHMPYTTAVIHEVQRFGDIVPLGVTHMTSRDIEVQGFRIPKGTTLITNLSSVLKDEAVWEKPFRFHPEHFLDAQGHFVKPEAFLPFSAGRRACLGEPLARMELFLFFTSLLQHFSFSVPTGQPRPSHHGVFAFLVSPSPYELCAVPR

[16] = target: Cytochrome P450 2C9 (Homo sapiens, UniProt P11712); assay: Inhibition of CYP2C9 (unknown origin); type: ADME
Sequence of Cytochrome P450 2C9 (P11712 whole entry): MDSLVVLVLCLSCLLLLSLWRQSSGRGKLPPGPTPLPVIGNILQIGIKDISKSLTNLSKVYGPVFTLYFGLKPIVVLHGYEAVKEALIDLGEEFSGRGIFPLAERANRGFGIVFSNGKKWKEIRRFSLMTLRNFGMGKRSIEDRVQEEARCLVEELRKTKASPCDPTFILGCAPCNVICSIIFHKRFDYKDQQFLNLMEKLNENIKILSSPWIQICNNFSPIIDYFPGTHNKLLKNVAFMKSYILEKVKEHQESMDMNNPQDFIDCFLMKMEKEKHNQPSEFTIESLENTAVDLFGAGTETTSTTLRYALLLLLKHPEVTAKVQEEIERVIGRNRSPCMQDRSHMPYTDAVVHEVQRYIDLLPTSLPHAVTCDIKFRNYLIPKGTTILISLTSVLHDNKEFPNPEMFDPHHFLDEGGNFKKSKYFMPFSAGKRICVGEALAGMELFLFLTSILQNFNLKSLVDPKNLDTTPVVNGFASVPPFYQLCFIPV

[17] = tested on: Rattus norvegicus; assay: Reduction in spontaneous locomotor activity in Sprague-Dawley rat at 15 umol/kg, po measured for 3 hrs; type: functional
[18] = Cmax in Sprague-Dawley rat at 10 umol/kg, ig administered as single dose measured for 12 hrs by LC-MS/MS analysis; type: ADME; design: route […], time 12 hrs, dose 10 µmol/kg; settings: in vivo, po
[19] = Tmax in Sprague-Dawley rat at 10 umol/kg, ig administered as single dose measured for 12 hrs by LC-MS/MS analysis; type: ADME; settings: in vivo, po, dose 10 µmol/kg
[20] = target: Cytochrome P450 2C19 (Homo sapiens, UniProt P33261); assay: Inhibition of CYP2C19 (unknown origin); type: ADME
Sequence of Cytochrome P450 2C19 (P33261 whole entry): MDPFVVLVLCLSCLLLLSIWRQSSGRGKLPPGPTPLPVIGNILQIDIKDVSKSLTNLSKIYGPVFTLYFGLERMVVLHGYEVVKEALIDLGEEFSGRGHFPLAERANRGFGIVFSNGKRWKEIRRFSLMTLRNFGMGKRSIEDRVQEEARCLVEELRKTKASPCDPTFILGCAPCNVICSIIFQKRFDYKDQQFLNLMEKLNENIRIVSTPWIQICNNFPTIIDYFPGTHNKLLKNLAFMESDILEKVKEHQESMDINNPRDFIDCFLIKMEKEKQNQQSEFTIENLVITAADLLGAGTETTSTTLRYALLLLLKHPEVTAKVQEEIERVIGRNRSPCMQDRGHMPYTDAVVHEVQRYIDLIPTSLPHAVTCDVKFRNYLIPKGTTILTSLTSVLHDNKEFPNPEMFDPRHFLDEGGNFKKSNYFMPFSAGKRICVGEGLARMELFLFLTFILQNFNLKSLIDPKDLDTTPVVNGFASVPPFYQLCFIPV

[21] = Apparent volume of distribution during terminal phase in Sprague-Dawley rat at 10 umol/kg, ig administered as single dose measured after 12 hrs by LC-MS/MS analysis; type: ADME; settings: in vivo, po, dose 10 µmol/kg, read-out: Vz/F
[22] = target: T2, Cytochrome P450 2B6 (Homo sapiens, UniProt P20813); assay: Inhibition of CYP2B6 (unknown origin); type: ADME
T2 sequence (P20813 whole entry): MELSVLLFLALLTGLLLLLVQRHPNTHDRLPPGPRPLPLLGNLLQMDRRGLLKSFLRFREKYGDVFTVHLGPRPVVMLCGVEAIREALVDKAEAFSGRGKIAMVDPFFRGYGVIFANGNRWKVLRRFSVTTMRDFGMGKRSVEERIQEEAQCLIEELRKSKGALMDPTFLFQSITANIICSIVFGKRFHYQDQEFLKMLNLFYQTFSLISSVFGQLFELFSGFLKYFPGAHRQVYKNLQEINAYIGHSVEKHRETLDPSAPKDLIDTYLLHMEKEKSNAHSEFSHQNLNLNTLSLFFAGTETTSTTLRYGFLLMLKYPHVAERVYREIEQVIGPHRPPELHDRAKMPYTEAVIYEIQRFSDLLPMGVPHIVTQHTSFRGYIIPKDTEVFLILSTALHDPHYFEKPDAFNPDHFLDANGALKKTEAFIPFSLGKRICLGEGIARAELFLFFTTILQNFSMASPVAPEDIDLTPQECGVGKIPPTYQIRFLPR

[23] = Clearance in Sprague-Dawley rat at 10 umol/kg, ig administered as single dose measured for 12 hrs by LC-MS/MS analysis; type: ADME; settings: in vivo, po, dose 10 µmol/kg
[24] = Drug uptake in Sprague-Dawley rat brain at 5 umol/kg, ig measured after 2 hrs by LC-MS/MS analysis; type: ADME, tissue-based; settings: in vivo, po, dose 5 µmol/kg
[25] = AUC (0 to infinity) in Sprague-Dawley rat at 10 umol/kg, ig administered as single dose by LC-MS/MS analysis; type: ADME; design: time infinity, route […], dose 10 µmol/kg; settings: in vivo, po
[26] = Half life in Sprague-Dawley rat at 10 umol/kg, ig administered as single dose measured for 12 hrs by LC-MS/MS analysis; type: ADME; settings: in vivo, po, dose 10 µmol/kg
[27] = target: Cytochrome P450 3A4 (Homo sapiens, UniProt P08684); assay: Inhibition of CYP3A4 (unknown origin); type: ADME
Sequence of Cytochrome P450 3A4 (P08684 whole entry): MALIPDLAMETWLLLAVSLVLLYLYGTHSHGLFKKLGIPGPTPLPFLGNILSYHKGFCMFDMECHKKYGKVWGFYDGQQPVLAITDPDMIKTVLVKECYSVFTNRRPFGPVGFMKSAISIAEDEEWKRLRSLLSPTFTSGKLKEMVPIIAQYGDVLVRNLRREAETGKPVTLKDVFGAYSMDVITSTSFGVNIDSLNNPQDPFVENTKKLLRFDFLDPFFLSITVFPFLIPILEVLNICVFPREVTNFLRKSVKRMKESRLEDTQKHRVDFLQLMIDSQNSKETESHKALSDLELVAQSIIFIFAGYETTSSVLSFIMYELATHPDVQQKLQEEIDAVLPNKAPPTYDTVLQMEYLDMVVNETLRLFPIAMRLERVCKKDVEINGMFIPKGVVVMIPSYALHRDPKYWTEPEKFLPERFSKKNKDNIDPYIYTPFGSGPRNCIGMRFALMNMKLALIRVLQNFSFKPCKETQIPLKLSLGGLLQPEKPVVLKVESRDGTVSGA

T1 sequence (Q01827 whole entry): as the sequence (Q01827 whole entry) above

SMILES	IC50 [1]	CLint scaled at 1 µM [2]	IC50 [3]	CLint scaled at 1 µM [4]	inhibition [6]	inhibition [8]	CLint scaled at 1 µM [11]	remaining at 1 h, 1 µM [13]	also measured
COc1cc2c(cc1OC)C1CC(N)C(CC(C)C)CN1CC2 (centres undefined)	–	–	102 nM	–	87.9%	72.8%	–	–	–
CCOc1cc2c(cc1OCC1CC1)C1CC(O)C(CC(C)C)CN1CC2 (centres undefined)	–	–	> 500 nM	–	–	–	–	–	–
CCOc1cc2c(cc1OC)C1CC(O)C(CC(C)C)CN1CC2 (centres undefined)	5.72 nM	131 mL/min/kg	–	14.4 mL/min/kg	99.9%	99.9%	283 mL/min/kg	66.8%	Stability ([9]; microsomes, 1 h, 1 µM): 23.7%; remaining at 1 h, 1 µM [10]: 9.4%
COc1cc2c(cc1OC)[C@H]1C[C@@H](O)[C@H](CC(C)C)CN1CC2 [DIHYDROTETRABENAZINE]	–	53.7 mL/min/kg	–	20.9 mL/min/kg	–	–	1150 mL/min/kg	75.6%	inhibition in vivo at 3 µmol/kg [14]: 48.4%; IC50 [15]: > 100000 nM; IC50 [16]: > 100000 nM; inhibition in vivo at 15 µmol/kg [17]: 91.4%; Cmax [18]: 1210 nM; Tmax [19]: 22.8 min; IC50 [20]: > 100000 nM; Vd/F [21]: 10.5 L/kg; half-life at 1 µM [5]: 34.8 min; IC50 [22]: > 100000 nM; CL/F [23]: 74.5 mL/min/kg; Drug uptake [24]: 213.5 nmol/kg; half-life at 1 µM [7]: 4.8 min; AUC(0-inf) [25]: 2.3 µM·h; half-life [26]: 96.6 min; remaining at 1 h, 1 µM [9]: 29.9%; remaining at 1 h, 1 µM [10]: 4.8%; IC50 [27]: > 100000 nM; half-life at 1 µM [12]: 120 min
CCCOc1cc2c(cc1OC)C1CC(O)C(CC(C)C)CN1CC2 (centres undefined)	35.2 nM	–	–	–	99.3%	91.2%	–	–	–
CCOc1cc2c(cc1OCCCOC)CCN1CC(CC(C)C)C(O)CC21 (centres undefined)	–	–	200 nM	–	–	–	–	–	–
COc1cc2c(cc1OC)C1CC(C)(O)C(CC(C)C)CN1CC2 (centres undefined)	–	–	> 500 nM	–	96.1%	53.1%	–	–	–

Further molecules by falling IC50 [3], results first:

IC50 [1]	CLint scaled at 1 µM [2]	IC50 [3]	CLint scaled at 1 µM [4]	inhibition [6]	inhibition [8]	CLint scaled at 1 µM [11]	remaining at 1 h, 1 µM [13]	SMILES	also measured
–	–	56.6 nM	–	–	–	–	–	CCOc1cc2c(cc1OCCCF)CCN1CC(CC(C)C)C(O)CC21 (centres undefined)	–
–	–	21.4 nM	–	–	–	–	–	CCOc1cc2c(cc1OCC1CC1)CCN1CC(CC(C)C)C(O)CC21 (centres undefined)	–
–	120 mL/min/kg	12.5 nM	22.5 mL/min/kg	–	–	535 mL/min/kg	47.3%	CCCOc1cc2c(cc1OCC)C1CC(O)C(CC(C)C)CN1CC2 (centres undefined)	half-life at 1 µM [5]: 15.6 min; half-life at 1 µM [7]: 10.3 min; remaining at 1 h, 1 µM [9]: 6.6%; remaining at 1 h, 1 µM [10]: 1.3%; half-life at 1 µM [12]: 55.4 min
5.14 nM	–	8.02 nM	109 mL/min/kg	99.7%	99.1%	143 mL/min/kg	–	COc1cc2c(cc1OC)C1CC(O)(CO)C(CC(C)C)CN1CC2 (centres undefined)	–
17.8 nM	72.4 mL/min/kg	5.99 nM	19.4 mL/min/kg	99.2%	96%	522 mL/min/kg	74.7%	COc1cc2c(cc1OCC1CC1)CCN1CC(CC(C)C)C(O)CC21 (centres undefined)	half-life at 1 µM [5]: 25.9 min; t1/2 ([7]; microsomes, 1 h, 1 µM): 10.5 min; remaining at 1 h, 1 µM [9]: 17.6%; Stability ([10]; microsomes, 1 h, 1 µM): 22.6%; half-life at 1 µM [12]: 128 min
